In one data set the target is NMDA. Kind of data set: Receptor panel binding: NMDA. The settings on record: read-out: affinity value, NMDA.
The next data set deals with D1 dopaminergic (Homo sapiens, UniProt P21728). Kind of data set: Receptor panel binding: D1 dopaminergic.
The target in the next data set is T1, 5-HT1a (Homo sapiens, UniProt P08908).
T1 sequence (P08908 1-422): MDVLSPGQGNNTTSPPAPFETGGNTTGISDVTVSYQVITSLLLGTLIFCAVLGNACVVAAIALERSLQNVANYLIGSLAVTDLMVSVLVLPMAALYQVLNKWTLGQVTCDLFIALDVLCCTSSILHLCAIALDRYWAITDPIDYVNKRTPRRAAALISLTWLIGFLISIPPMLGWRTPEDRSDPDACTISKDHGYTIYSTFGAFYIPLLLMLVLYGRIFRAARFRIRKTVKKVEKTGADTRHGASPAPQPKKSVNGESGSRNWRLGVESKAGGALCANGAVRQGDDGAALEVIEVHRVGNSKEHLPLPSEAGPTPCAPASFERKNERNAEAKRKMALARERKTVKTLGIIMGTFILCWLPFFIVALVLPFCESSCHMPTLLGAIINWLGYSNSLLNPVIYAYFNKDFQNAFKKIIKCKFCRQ
The data set can be described thus: Binding affinity for serotonin subtype 5-HT1a.

The next data set deals with 5-HT5a (Homo sapiens, UniProt P47898). Kind of data set: Binding affinity for serotonin subtype 5-HT5a.
5-HT5a, sequence (P47898 whole entry, species assumed): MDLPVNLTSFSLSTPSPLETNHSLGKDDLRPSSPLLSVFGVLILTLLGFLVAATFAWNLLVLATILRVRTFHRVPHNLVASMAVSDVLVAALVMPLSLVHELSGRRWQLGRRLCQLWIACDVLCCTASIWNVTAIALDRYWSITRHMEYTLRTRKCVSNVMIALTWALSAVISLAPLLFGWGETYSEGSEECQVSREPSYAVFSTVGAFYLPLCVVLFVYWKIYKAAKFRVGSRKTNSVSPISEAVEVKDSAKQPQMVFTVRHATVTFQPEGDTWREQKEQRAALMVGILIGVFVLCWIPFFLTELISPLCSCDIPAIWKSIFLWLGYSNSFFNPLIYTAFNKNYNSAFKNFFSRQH
In a further data set the target is V2 of vasopressin (Homo sapiens, UniProt P30518). The data set can be described thus: Receptor panel binding: vasopressin V2.
V2 of vasopressin, sequence (P30518 whole entry): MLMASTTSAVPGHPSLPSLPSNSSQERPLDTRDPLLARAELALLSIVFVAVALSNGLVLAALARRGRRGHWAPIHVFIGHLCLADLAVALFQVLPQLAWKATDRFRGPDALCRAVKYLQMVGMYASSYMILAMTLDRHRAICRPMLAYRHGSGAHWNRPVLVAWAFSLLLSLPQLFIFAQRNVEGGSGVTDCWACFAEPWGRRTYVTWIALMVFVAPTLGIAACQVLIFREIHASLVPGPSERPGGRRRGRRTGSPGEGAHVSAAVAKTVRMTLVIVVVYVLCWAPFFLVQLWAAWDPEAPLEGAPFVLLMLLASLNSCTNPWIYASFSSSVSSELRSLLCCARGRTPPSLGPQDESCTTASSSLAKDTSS
A further data set addresses 5-HT transporter (Homo sapiens, UniProt P31645). The data set can be described thus: Binding affinity for 5-HT transporter.
The target of a further data set is 5-HT1d (Homo sapiens, UniProt P28221). Kind of data set: Binding affinity for serotonin subtype 5-HT1d.
The next data set has as its target D2 dopaminergic (Homo sapiens, UniProt P14416). Kind of data set: Receptor panel binding: D2 dopaminergic.
In the next data set the target is D3 dopaminergic (Homo sapiens, UniProt P35462). Kind of data set: Receptor panel binding: D3 dopaminergic.
D3 dopaminergic, sequence (P35462 whole entry): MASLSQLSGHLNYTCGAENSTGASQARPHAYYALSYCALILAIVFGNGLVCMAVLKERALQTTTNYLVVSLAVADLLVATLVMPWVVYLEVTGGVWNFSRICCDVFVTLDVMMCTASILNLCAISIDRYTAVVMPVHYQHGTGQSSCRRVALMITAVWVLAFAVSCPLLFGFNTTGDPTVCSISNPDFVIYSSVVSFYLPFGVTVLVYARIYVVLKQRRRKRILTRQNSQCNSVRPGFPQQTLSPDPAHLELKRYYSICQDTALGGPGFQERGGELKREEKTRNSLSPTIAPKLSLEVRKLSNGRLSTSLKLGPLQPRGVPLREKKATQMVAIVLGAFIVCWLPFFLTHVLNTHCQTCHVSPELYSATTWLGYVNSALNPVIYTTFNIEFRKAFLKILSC
The next data set deals with T2, 5-HT3 (Homo sapiens, UniProt P46098).
T2 sequence (P46098 24-478): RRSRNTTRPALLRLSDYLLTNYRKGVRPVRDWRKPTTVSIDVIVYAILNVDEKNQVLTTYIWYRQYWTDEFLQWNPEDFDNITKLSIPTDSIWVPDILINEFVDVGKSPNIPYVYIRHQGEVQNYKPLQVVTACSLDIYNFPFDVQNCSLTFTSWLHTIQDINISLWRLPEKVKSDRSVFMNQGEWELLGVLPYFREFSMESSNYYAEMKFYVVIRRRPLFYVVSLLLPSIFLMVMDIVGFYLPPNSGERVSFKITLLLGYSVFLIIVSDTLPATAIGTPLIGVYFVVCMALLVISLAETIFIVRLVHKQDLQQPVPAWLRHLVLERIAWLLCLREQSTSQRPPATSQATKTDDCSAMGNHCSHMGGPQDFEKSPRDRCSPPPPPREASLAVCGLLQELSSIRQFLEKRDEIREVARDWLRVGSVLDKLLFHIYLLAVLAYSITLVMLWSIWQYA
The data set can be described thus: Binding affinity for serotonin subtype 5-HT3.

The target in the next data set is DA transporter (Homo sapiens, UniProt Q01959). Kind of data set: Receptor panel binding: DA transporter.
DA transporter, sequence (Q01959 whole entry, species assumed): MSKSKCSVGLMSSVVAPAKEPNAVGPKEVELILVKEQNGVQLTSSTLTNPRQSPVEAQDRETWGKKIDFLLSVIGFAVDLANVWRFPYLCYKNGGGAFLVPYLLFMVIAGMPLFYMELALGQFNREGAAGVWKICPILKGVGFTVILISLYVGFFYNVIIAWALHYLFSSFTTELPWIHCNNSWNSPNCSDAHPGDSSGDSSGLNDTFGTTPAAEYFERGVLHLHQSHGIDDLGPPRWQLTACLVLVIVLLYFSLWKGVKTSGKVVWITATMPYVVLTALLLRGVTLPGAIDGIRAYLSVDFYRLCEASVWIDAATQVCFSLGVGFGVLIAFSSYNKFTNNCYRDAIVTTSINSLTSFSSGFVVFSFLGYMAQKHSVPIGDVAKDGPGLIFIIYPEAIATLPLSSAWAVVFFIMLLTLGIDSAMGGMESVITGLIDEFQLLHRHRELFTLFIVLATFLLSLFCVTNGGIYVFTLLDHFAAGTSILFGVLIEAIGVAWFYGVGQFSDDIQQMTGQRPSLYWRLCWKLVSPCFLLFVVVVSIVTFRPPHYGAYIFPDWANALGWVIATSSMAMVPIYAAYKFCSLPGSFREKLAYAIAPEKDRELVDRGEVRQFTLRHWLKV
A further data set deals with T3, D4,4 dopaminergic (Homo sapiens, UniProt P21917).
T3 sequence (P21917 1-419): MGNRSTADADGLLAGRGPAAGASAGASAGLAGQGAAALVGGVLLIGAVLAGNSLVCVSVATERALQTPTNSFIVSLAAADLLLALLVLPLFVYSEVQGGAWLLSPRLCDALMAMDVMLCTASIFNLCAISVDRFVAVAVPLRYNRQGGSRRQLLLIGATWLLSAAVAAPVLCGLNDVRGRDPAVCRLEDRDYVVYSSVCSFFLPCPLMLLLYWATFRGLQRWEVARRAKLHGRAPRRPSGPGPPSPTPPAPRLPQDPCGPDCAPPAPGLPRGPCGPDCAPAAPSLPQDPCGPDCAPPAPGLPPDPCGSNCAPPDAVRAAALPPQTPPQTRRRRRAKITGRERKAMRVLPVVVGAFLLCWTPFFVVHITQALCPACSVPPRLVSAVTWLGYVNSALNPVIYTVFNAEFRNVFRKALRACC
The data set can be described thus: Receptor panel binding: D4,4 dopaminergic.

A further data set concerns the target 5-HT2a (Homo sapiens, UniProt P28223). The data set can be described thus: biochemical. The format is binding.
The target of data set [1] is muscarinic (non-selective). The data set can be described thus: Receptor panel binding: muscarinic. The conditions noted are these: read-out: affinity value, muscarinic (non-selective).
The target of a further data set is opiate (non-selective). The data set can be described thus: Receptor panel binding: opiate. The conditions noted are these: read-out: affinity value, opiate (non-selective).
Another data set has as its target nicotinic receptors. The data set can be described thus: Receptor panel binding: nicotinic receptors. The settings on record: read-out: affinity (Ki), nicotinic receptors.
Another data set has as its target vasopressin V1. The data set can be described thus: Receptor panel binding: vasopressin V1. The settings on record: read-out: affinity (Ki), vasopressin V1.
The next data set addresses H1 histaminergic (Homo sapiens, UniProt P35367). The data set can be described thus: Receptor panel binding: H1 histaminergic.
Another data set has as its target NA transporter (Homo sapiens, UniProt P23975). Kind of data set: Receptor panel binding: NA transporter.
For the next data set, the target named is T4, 5-HT2c (Homo sapiens, UniProt P28335).
T4 sequence (P28335 33-458): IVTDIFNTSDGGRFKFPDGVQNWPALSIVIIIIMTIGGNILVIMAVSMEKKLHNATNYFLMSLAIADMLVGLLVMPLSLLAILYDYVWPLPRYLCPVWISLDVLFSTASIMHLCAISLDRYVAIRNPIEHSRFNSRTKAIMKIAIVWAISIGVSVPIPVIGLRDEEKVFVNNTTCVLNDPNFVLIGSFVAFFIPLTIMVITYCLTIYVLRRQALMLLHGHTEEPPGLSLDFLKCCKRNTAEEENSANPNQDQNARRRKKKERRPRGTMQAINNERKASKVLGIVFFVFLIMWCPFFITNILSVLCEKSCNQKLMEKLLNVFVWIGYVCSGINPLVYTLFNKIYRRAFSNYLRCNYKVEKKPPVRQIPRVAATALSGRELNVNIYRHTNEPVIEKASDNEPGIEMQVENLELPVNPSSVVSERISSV
The data set can be described thus: Binding affinity for serotonin subtype 5-HT2c.

For data set [2], the target named is T5, rat 5-HT6 stably transfected to HEK293 (Rattus norvegicus, UniProt P31388).
T5 construct: expressed in transfected cells; host or cells: HEK293
T5 sequence (P31388 whole entry): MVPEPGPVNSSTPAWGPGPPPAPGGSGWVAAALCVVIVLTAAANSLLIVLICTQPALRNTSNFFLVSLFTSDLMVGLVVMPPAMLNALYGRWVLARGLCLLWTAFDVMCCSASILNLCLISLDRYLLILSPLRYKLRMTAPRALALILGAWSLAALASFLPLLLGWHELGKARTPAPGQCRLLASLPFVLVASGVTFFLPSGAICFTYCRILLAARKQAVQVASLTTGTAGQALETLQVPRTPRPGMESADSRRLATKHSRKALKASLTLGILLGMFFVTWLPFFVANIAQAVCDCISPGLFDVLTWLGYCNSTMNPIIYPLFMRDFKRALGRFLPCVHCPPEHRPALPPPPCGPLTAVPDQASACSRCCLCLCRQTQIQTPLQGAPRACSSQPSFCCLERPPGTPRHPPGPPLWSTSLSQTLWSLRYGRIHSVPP
Kind of data set: 5-HT6 receptor binding, [3H]-LSD displacement.

The target in a further data set is PCP. Kind of data set: Receptor panel binding: PCP. The settings on record: read-out: affinity (Ki), PCP.
A further data set deals with 5-HT4 (Homo sapiens, UniProt Q13639). Kind of data set: Binding affinity for serotonin subtype 5-HT4.
5-HT4, sequence (Q13639 whole entry, species assumed): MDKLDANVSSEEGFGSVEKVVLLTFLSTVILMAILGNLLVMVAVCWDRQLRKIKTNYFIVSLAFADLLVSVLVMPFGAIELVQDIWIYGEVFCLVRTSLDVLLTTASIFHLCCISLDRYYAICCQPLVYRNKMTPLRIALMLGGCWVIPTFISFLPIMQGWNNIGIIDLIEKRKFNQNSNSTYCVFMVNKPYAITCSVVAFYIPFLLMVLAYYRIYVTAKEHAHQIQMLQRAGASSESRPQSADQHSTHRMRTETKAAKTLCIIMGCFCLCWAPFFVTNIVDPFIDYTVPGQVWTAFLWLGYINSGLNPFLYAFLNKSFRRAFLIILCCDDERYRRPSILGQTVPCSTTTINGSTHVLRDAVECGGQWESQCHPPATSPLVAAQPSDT
In a further data set the target is D5 dopaminergic (Homo sapiens, UniProt P21918). The data set can be described thus: Receptor panel binding: D5 dopaminergic.
D5 dopaminergic, sequence (P21918 whole entry): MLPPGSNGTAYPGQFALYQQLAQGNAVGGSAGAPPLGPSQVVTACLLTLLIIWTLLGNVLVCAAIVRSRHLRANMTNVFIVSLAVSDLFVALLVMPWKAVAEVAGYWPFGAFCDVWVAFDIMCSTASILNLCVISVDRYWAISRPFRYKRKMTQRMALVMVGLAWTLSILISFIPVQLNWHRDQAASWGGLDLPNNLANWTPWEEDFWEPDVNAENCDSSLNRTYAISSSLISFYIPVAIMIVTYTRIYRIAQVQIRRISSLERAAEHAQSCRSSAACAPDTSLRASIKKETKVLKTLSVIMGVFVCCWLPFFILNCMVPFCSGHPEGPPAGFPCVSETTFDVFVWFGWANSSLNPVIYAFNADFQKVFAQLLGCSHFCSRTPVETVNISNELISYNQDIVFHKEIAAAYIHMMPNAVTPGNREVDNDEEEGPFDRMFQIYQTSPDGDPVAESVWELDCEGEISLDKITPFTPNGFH
The target of data set [3] is T6, human 5-HT7 receptor stably transfected to CHO cells (Homo sapiens, UniProt P34969).
T6 construct: expressed in transfected cells; host or cells: CHO
T6 sequence (P34969 whole entry): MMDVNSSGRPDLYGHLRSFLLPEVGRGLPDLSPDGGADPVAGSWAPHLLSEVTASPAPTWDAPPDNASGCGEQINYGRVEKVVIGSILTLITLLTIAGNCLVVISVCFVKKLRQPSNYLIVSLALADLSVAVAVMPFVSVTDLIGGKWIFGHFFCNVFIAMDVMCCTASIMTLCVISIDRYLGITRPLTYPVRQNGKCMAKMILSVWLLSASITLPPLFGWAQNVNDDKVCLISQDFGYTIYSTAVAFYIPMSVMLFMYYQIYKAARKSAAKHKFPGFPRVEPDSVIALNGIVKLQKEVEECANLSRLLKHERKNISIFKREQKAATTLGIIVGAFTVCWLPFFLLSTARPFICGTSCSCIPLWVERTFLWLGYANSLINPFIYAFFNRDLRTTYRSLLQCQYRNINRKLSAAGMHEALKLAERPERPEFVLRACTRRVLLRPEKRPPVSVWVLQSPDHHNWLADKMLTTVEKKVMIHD
Kind of data set: 5-HT7 receptor binding, [3H]-LSD displacement.

In the next data set the target is 5-HT1b (Homo sapiens, UniProt P28222). Kind of data set: Binding affinity for serotonin subtype 5-HT1b.
Another data set has as its target 5-HT2b (Homo sapiens, UniProt P41595). Kind of data set: Binding affinity for serotonin subtype 5-HT2b.

The record followed here is US7098233B2 (priority 2001, dated 2006).

pIC50, pKi: −log10 of the molar value.

H1 histaminergic, sequence (P35367 whole entry): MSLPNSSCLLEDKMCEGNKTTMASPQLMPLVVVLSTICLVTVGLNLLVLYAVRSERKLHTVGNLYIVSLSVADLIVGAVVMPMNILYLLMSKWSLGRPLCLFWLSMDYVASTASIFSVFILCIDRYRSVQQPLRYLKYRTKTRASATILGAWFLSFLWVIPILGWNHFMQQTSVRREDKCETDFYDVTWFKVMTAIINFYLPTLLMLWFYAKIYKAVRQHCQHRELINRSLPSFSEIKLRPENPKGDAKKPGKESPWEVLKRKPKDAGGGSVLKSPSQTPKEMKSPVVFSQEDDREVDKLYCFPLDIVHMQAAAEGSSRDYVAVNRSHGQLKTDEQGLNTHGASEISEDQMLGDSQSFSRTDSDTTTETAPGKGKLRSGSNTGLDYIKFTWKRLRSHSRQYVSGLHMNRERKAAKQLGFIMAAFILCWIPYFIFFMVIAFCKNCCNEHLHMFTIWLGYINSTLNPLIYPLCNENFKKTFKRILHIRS
5-HT2b, sequence (P41595 whole entry, species assumed): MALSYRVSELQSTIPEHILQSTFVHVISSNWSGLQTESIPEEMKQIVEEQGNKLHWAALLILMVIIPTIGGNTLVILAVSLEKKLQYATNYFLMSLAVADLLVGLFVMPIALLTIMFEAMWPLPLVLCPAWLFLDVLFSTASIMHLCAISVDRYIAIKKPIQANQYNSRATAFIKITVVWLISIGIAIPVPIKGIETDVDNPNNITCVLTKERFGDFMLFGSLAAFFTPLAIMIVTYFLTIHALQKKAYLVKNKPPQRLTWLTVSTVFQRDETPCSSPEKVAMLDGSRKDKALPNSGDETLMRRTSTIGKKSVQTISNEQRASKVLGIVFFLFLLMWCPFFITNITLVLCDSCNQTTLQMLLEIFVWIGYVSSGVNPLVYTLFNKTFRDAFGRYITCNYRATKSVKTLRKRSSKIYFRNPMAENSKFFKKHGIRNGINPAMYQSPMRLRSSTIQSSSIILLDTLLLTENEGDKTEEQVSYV
D1 dopaminergic, sequence (P21728 whole entry): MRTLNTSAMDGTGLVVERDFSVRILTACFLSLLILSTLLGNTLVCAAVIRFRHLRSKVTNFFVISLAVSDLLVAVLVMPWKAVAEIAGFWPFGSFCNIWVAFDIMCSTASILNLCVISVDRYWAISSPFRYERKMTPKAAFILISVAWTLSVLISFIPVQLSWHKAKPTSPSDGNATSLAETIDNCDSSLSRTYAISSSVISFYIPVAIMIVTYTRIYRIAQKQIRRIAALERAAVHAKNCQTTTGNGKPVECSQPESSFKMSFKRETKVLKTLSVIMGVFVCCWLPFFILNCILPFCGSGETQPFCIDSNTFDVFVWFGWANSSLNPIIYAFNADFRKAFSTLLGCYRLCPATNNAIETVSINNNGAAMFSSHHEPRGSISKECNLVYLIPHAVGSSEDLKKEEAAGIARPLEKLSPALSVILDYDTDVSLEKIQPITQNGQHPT

One may read the melting point as the temperature of the solid-liquid transition. As usually defined, the pIC50 is −log10 of the IC50, conventionally taken in molar units. Low values mean a high IC50, high ones a low IC50. The compound `Cc1[nH]c2ccc(Br)cc2c1CCN(C)C` [ST 1938, 5-bromo-2-methyl-N,N-dimethyltryptamine] displayed a melting point of 135 to 136 °C. In addition, the pKi at NMDA was < 6.00. Besides, the pKi at D1 dopaminergic was < 6.00. On 5-HT1a, this compound showed a pKi of 6.02. The pKi on 5-HT5a was < 6.00. On V2 of vasopressin, the pKi is < 6.00. Also, the pKi at 5-HT transporter is < 6.00. In addition, the pKi on 5-HT1d was < 6.00. The pKi on D2 dopaminergic is < 6.00. Moreover, the pKi on D3 dopaminergic was < 6.00. The pKi on 5-HT3 is < 6.00. The pKi on DA transporter is < 6.00. At D4,4 dopaminergic, the pKi is < 6.00. For the same compound, the pKi at 5-HT2a was < 6.00. Besides, the pKi in data set [1] is < 6.00. Also, the pKi on opiate (non-selective) is < 6.00. Besides, the pKi at nicotinic receptors is < 6.00. Further, the pKi at vasopressin V1 was < 6.00. Also, the pKi at H1 histaminergic was < 6.00. The pKi at NA transporter is < 6.00. For the same compound, the pKi at 5-HT2c is < 6.00. For the same compound, in data set [2], the “5-HT6 binding affinity compared with Serotonin (in words)” value is reported as “greater than that observed for Serotonin”, the pIC50 was 7.21, the pKi is 7.49 and the “affinity for rat recombinant 5-HT6 receptor (in words)” value is “high affinity”. Also, the “selectivity of binding for 5-HT6 receptor (in words)” value in [2] (over other serotonin sites and other neurotransmitter receptors) is “mixed activity for 5-HT6 and 5-HT7 serotonin receptors”. Further, the pKi at PCP was < 6.00. At 5-HT4, the pKi is < 6.00. Moreover, the pKi on D5 dopaminergic is < 6.00. For the same compound, in [3], the pIC50 was 6.80, the pKi was 7.33 and the “affinity for human recombinant 5-HT7 receptor (in words)” value is recorded as “highest affinity”. The pKi at 5-HT1b is < 6.00. This compound also gave a pKi at 5-HT2b of 6.81.

In [2], `NCCc1c[nH]c2ccc(O)cc12` [Serotonin, reference compound] had a pIC50 of 6.77 and a pKi of 7.06.
